From paper PMC7725785, “TRIB3 promotes MYC-associated lymphoma development through suppression of UBE3B-mediated MYC degradation” (Nature Communications, 2020)

Tested on: DLBCL^T169 PDX
Test: PDX model tumor growth and weight, DLBCL T169
Assay type: in vivo, human
Settings: result in words
Experimental: Four 5-week-old male NSG mice were implanted subcutaneously with 200 μl of a 1:1 mixture of Matrigel® Basement Membrane Matrix High Concentration (Corning, 354230) and minced fresh tumor fragments resected from lymphoma patients. Approximately 3–4 weeks following implantation, the first-generation mice (G1) were killed, and tumor masses were isolated. The tumor cells were tested for human CD19 (BCL) or CD3 expression (T cell lymphoma), and the remaining tumor mass was cut into 3-mm^3 sections and passaged into 4–5 NSG mice as the second generation (G2). After stable passage of the third generation (G3), the tumor mass of the fourth generation (G4) was equally cut into 3-mm^3 pieces and then passaged subcutaneously into 30–50 NSG mice (100 μl of a 1:2 mixture of Matrigel and tumor tissue) for in vivo treatment (6–8 mice per group, dependent on the experimental drug treatment). During and after treatment with the vehicle control or the indicated agent, tumor burden was evaluated by measuring the tumor volume to determine the therapeutic efficacy in the PDX models. […]
To evaluate the survival rate, these mice were monitored for 8 months (Myc^Eμ mice). […] During the indicated treatments, tumor burden was evaluated by measuring the tumor volume to determine the therapeutic efficacy in the PDX models.

Sequence: HLYVSPWGGKRREQLKHKLEQLR [PCM4, fused peptide generated by linking CM4 to a cell-penetrating peptide]
- growth and weights of tumors, combination of PCM4 and DOX (PDX T169 (high TRIB3 and MYC expression), PCM4 5 mg/kg and DOX 2 mg/kg): further decreased the growth and weights of tumors
- tumor growth of PDX (PDX T169, NSG mice, PCM4 5 mg/kg i.v. three times a week): inhibited the tumor growth
